Data as given in patent US20190161516A1, “PROTEASOME INHIBITORS” (University of Kentucky Research Foundation, priority 2017, published 2019).
Like-named read-outs stand apart in the source and are kept apart here.

Columns and labels:
LMP2/β1i = LMP2/β1i (Homo sapiens, UniProt P28065+P40306); assay: Proteasome inhibitory activity, subunit-specific cell lysate IC50, LMP2; format: biochemical; design: Subunit-Specific Cell lysate IC50 (μM); endogenous in cells
[1] = test system: Chymotrypsin-like activity (β5/β5i); assay: Proteasome inhibitory activity, subunit-specific cell lysate IC50, chymotrypsin-like activity; format: biochemical
[2] = test system: human peripheral blood mononuclear cells (PBMCs); conditions: previous studies; cited from earlier work
BV-2 cells = assay: LPS-induced IL-6 production in BV-2 microglial cell line; format: cell-based; conditions: FIG. 14
Source text: To test this, we used BV-2 cell line, a microglial cell line, known to upregulate cytokines in response to LPS treatment. […] We suspect these contradictory results are due to cell type-specific role of LMP2, indicating a distinct role of LMP2 in microglia inflammatory response.

[3] = read-out: Subunit-Specific Cell lysate IC50, LMP2 (β1i)
[4] = Subunit-Specific Cell lysate IC50, LMP2 (β1i)

Compound: Cc1ncc(C(=O)NCC(=O)N2CCC[C@H]2C(=O)N[C@@H](Cc2ccc(-c3ccccc3)cc2)C(=O)N[C@@H](CC(C)C)C(=O)[C@@]2(C)CO2)s1 [Analogue 24]
- IC50 (LMP2/β1i; [3]): 130 nM

Compound: CC(=O)NCC(=O)N1CCC[C@H]1C(=O)N[C@@H](Cc1ccc(NC(=O)c2cnccn2)cc1)C(=O)N[C@@H](CC(C)C)C(=O)[C@@]1(C)CO1 [Analogue 28]
- IC50 (LMP2/β1i; [4]): 30 nM
- IC50 [1]: > 10000 nM

Compound: CC(=O)NCC(=O)N1CCC[C@H]1C(=O)N[C@@H](Cc1ccncc1)C(=O)N[C@@H](CC(C)C)C(=O)[C@@]1(C)CO1 [Analogue 30]
- IC50 (LMP2/β1i; [3]): 120 nM

Compound: CCc1ccc(C[C@H](NC(=O)[C@@H]2CCCN2C(=O)CNC(C)=O)C(=O)N[C@@H](CC(C)C)C(=O)[C@@]2(C)CO2)cc1 [Analogue 9]
- IC50 (LMP2/β1i; [3]): 130 nM
- IC50 [1]: > 10000 nM

Compound: CC(=O)NCC(=O)N1CCC[C@H]1C(=O)N[C@@H](Cc1ccc(NC(=O)CN2CCOCC2)cc1)C(=O)N[C@@H](CC(C)C)C(=O)[C@@]1(C)CO1 [Analogue 29]
- IC50 (LMP2/β1i; [3]): 90 nM
- IC50 [1]: > 10000 nM

Compound: CC(=O)NCC(=O)N1CCC[C@H]1C(=O)N[C@@H](Cc1ccc(-c2ccccc2)cc1)C(=O)N[C@@H](CC(C)C)C(=O)[C@@]1(CO)CO1 [Analogue 4]
- IC50 (LMP2/β1i; [3]): 650 nM
- IC50 [1]: > 10000 nM

Compound: CC(C)C[C@H](NC(=O)[C@H](Cc1ccccc1)NC(=O)[C@@H]1CCCN1C(=O)CN1CCOCC1=O)C(=O)[C@@]1(C)CO1 [Analogue 3]
- IC50 (LMP2/β1i; [3]): 1000 nM
- IC50 [1]: > 10000 nM

Compound: COc1ccc(C[C@H](NC(=O)[C@H](C)NC(=O)CN2CCOCC2)C(=O)N[C@@H](Cc2ccccc2)C(=O)[C@@]2(C)CO2)cc1 [ONX-0914]
- LPS-induced cytokine production including IL-6 [2]: almost completely blocked
- IL-6 production induced by LPS (BV-2 cells): less effective in blocking IL-6 production

Compound: CC(C)C[C@H](NC(=O)[C@H](Cc1ccc2ccccc2c1)NC(=O)[C@@H]1CCCN1C(=O)CNC(=O)c1cnccn1)C(=O)[C@@]1(C)CO1 [Analogue 23]
- IC50 (LMP2/β1i; [3]): 60 nM

Compound: CC(C)C[C@H](NC(=O)[C@H](Cc1ccccc1)NC(=O)[C@@H]1CCCN1C(=O)CN1CCOCC1)C(=O)[C@@]1(C)CO1 [Analogue 1]
- IC50 (LMP2/β1i; [3]): 1200 nM
- IC50 [1]: > 10000 nM

Compound: CC(=O)NCC(=O)N1CCC[C@H]1C(=O)N[C@@H](Cc1ccccc1)C(=O)N[C@@H](CC(C)C)C(=O)[C@@]1(CO)CO1 [Analogue 11]
- IC50 (LMP2/β1i; [3]): 60 nM
- IC50 [1]: > 10000 nM

Compound: Cc1cc(C(=O)NCC(=O)N2CCC[C@H]2C(=O)N[C@@H](CCc2ccccc2)C(=O)N[C@@H](CC(C)C)C(=O)[C@@]2(C)CO2)no1 [Analogue 21]
- IC50 (LMP2/β1i; [3]): 130 nM
- IC50 [1]: > 10000 nM

Compound: CC(C)C[C@H](NC(=O)[C@H](Cc1ccc(-c2ccccc2)cc1)NC(=O)[C@@H]1CCCN1C(=O)CNC(=O)c1cnccn1)C(=O)[C@@]1(C)CO1 [Analogue 22]
- IC50 (LMP2/β1i; [3]): 90 nM
- IC50 [1]: 5000 nM

Compound: CC(=O)NCC(=O)N1CCC[C@H]1C(=O)N[C@@H](Cc1ccc(-c2ccccc2)cc1)C(=O)N[C@@H](CC(C)C)C(=O)[C@@]1(C)CO1 [Analogue 8]
- IC50 (LMP2/β1i; [3]): 20 nM
- IC50 [1]: 5000 nM

Compound: CC(=O)NCC(=O)N1CCC[C@H]1C(=O)N[C@@H](CCc1ccccc1)C(=O)N[C@@H](CC(C)C)C(=O)[C@@]1(C)CO1 [Analogue 13]
- IC50 (LMP2/β1i; [3]): 60 nM
- IC50 [1]: > 10000 nM

Compound: CC(C)C[C@H](NC(=O)[C@H](Cc1ccccc1)NC(=O)[C@@H]1CCCN1C(=O)CNC(=O)S(C)(=O)=O)C(=O)[C@@]1(C)CO1 [Analogue 27]
- IC50 (LMP2/β1i; [3]): 110 nM
- IC50 [1]: > 10000 nM

Compound: Cc1ncc(C(=O)NCC(=O)N2CCC[C@H]2C(=O)N[C@@H](Cc2ccc3ccccc3c2)C(=O)N[C@@H](CC(C)C)C(=O)[C@@]2(C)CO2)s1 [Analogue 26]
- IC50 (LMP2/β1i; [3]): 90 nM

Compound: CC(C)C[C@H](NC(=O)[C@H](CCc1ccccc1)NC(=O)[C@@H]1CCCN1C(=O)CNC(=O)c1cnccn1)C(=O)[C@@]1(C)CO1 [Analogue 20]
- IC50 (LMP2/β1i; [3]): 100 nM

Compound: CC(C)C[C@H](NC(=O)[C@H](Cc1ccccc1)NC(=O)[C@@H]1CCCN1C(=O)c1cccc(O)n1)C(=O)[C@@]1(C)CO1 [Analogue 2]
- IC50 (LMP2/β1i; [3]): 1000 nM
- IC50 [1]: > 10000 nM

Compound: CC(=O)NCC(=O)N1CC(F)(F)C[C@H]1C(=O)N[C@@H](Cc1ccccc1)C(=O)N[C@@H](CC(C)C)C(=O)[C@@]1(C)CO1 [Analogue 12]
- IC50 (LMP2/β1i; [3]): 70 nM
- IC50 [1]: > 10000 nM

Compound: CC(=O)NCC(=O)N1CCC[C@H]1C(=O)N[C@@H](Cc1ccc2ccccc2c1)C(=O)N[C@@H](CC(C)C)C(=O)[C@@]1(CO)CO1 [Analogue 6]
- IC50 (LMP2/β1i; [3]): 2200 nM
- IC50 [1]: 7000 nM

Compound: Cc1ncc(C(=O)NCC(=O)N2CCC[C@H]2C(=O)N[C@@H](CCc2ccccc2)C(=O)N[C@@H](CC(C)C)C(=O)[C@@]2(C)CO2)s1 [Analogue 19]
- IC50 (LMP2/β1i; [3]): 180 nM
- IC50 [1]: > 10000 nM

Compound: CC(=O)NCC(=O)N1CCC[C@H]1C(=O)N[C@@H](Cc1ccc(NC(=O)c2ccccc2)cc1)C(=O)N[C@@H](CC(C)C)C(=O)[C@@]1(C)CO1 [Analogue 18]
- IC50 (LMP2/β1i; [4]): 70 nM
- IC50 [1]: 5000 nM

Compound: Cc1ncc(C(=O)NCC(=O)N2CCC[C@H]2C(=O)N[C@@H](Cc2ccccc2)C(=O)N[C@@H](CC(C)C)C(=O)[C@@]2(C)CO2)s1 [Analogue 15]
- IC50 (LMP2/β1i; [3]): 100 nM
- IC50 [1]: > 10000 nM

Compound: CC(=O)NCC(=O)N1CCC[C@H]1C(=O)N[C@@H](Cc1cccc2ccccc12)C(=O)N[C@@H](CC(C)C)C(=O)[C@@]1(C)CO1 [Analogue 10]
- IC50 (LMP2/β1i; [3]): 30 nM
- IC50 [1]: > 10000 nM

Compound: CC(=O)NCC(=O)N1CCC[C@H]1C(=O)N[C@@H](Cc1ccc2ccccc2c1)C(=O)N[C@@H](CC(C)C)C(=O)[C@@]1(CO[Si](c2ccccc2)(c2ccccc2)C(C)(C)C)CO1 [Analogue 5]
- IC50 (LMP2/β1i; [4]): > 10000 nM
- IC50 [1]: > 10000 nM

Compound: CC(C)C[C@H](NC(=O)[C@H](Cc1ccccc1)NC(=O)[C@@H]1CCCN1C(=O)CNC(=O)c1cccc(O)n1)C(=O)[C@@]1(C)CO1 [Analogue 17]
- IC50 (LMP2/β1i; [3]): 140 nM
- IC50 [1]: > 10000 nM

Compound: CC(C)C[C@H](NC(=O)[C@H](Cc1ccccc1)NC(=O)[C@@H]1CCCN1C(=O)CNC(=O)C(F)(F)F)C(=O)[C@@]1(C)CO1 [Analogue 25]
- IC50 (LMP2/β1i; [3]): 130 nM
- IC50 [1]: > 10000 nM

Compound: CC(=O)NCC(=O)N1CCC[C@H]1C(=O)N[C@@H](Cc1ccc2ccccc2c1)C(=O)N[C@@H](CC(C)C)C(=O)[C@@]1(C)CO1 [Analogue 7]
- IC50 (LMP2/β1i; [3]): 30 nM
- IC50 [1]: > 10000 nM

Compound: CC(=O)NCC(=O)N1CCCCC1C(=O)N[C@@H](Cc1ccccc1)C(=O)N[C@@H](CC(C)C)C(=O)[C@@]1(C)CO1 (stereo partly shown) [Analogue 14]
- IC50 (LMP2/β1i; [3]): 120 nM
- IC50 [1]: 1000 nM
